The subject of assay [1] is Staph. aureus Smith. Description: In vivo activity (oral, iv; ED50) against Staph. aureus Smith in mice.
Description: Representative examples of compounds of Formula I were tested for the oral efficacy using S. aureus Smith in mice.
For assay [2], the system named is E. coli. Description: Range of MIC for E. coli strains. Particulars: Escherichia coli.
The test system of a further assay is Staph. As to the kind of experiment: Range of MIC for Staph. strains, including MRSA. Particulars: Staphylococcus aureus.
A further assay relates to E. coli #311. As to the kind of experiment: In vivo activity (oral, iv; ED50) against E. coli in mice. Particulars: Escherichia coli. An excerpt: . […] Smith and E. Coli #311 in mammals.
Results of the tests (MIC, oral and IV) are list in Table 7.

Assay [3] relates to Staph. aureus Smith. Description: In vitro activity (MIC) against Staph. aureus Smith. Particulars: Staphylococcus aureus. The assay is classed as cell-based.
The subject of assay [4] is E. coli. Description: In vitro activity (MIC) against E. coli (Table 7). The format is cell-based. Conditions: Escherichia coli.
The mark [5] stands for this setting: Staphylococcus aureus, in Mus musculus, iv, read-out: ED50 SIV (Staph aureus Smith).
Where [6] appears, read: Staphylococcus aureus, in Mus musculus, po, read-out: ED50 SOD (Staph aureus Smith).
Where [7] appears, read: Staphylococcus aureus, in Mus musculus, po, read-out: ED50 Staph Smith SOD.
[8] abbreviates: iv, read-out: ED50 Staph Smith SIV.
Where [9] appears, read: 20 h, read-out: Range of MIC, E. coli (Mouse Serum).
[10] abbreviates: read-out: Minimum inhibitory concentration (MIC), E. coli (Human Serum).
Where [11] appears, read: read-out: Range of MIC, E. coli (mouse serum).
[12] abbreviates: MRSA, read-out: Range of MIC, Staph (Mouse Serum).
[13] abbreviates: MRSA, read-out: Range of MIC, Staph (Water).
Setting [14] is: MRSA, read-out: Range of MIC, Staph. (mouse serum).
The mark [15] stands for this setting: MRSA, read-out: Range of MIC, Staph. (water).
[16] abbreviates: read-out: Minimum inhibitory concentration (MIC), Staph (Human Serum).
[17] abbreviates: read-out: Minimum inhibitory concentration (MIC), Staph (Water).
Where [18] appears, read: single intravenous dose (SIV), read-out: ED50 E. coli #311 SIV.
The mark [19] stands for this setting: single oral dose (SOD), read-out: ED50 E. coli #311 SOD.
Setting [20] is: read-out: Minimum inhibitory concentration (MIC), E. coli (mouse serum).
Where [21] appears, read: read-out: Minimum inhibitory concentration (MIC), E. coli (water).
The mark [22] stands for this setting: read-out: Range of MIC, E. coli (Water).
Setting [23] is: MRSA, read-out: Minimum inhibitory concentration (MIC), Staph. (mouse serum).
Setting [24] is: MRSA, read-out: Minimum inhibitory concentration (MIC), Staph. (water).

Converted amounts (≈) assume the structure as drawn. Read-outs that look alike come from different tables or passages of the source. A value given as a limit tells only on which side of the number the result lay.

With `CCCCCCC(=O)OCOC(=O)N(CCC)CC(=O)Nc1cc(N(C)C)c2c(c1O)C(=O)C1=C(O)[C@]3(O)C(=O)C(C(N)=O)=C(O)[C@@H](N(C)C)[C@@H]3C[C@@H]1C2` [Example 19, ({[(2-{[(5aR,6aS,7S,10aS)-9-(aminocarbonyl)-4,7-bis(dimethylamino)-1,8,10a,11-tetrahydroxy-10,12-dioxo-5,5a,6,6a,7,10,10a,12-octahydrotetracen-2-yl]amino}-2-oxoethyl)(propyl)amino]carbonyl}oxy)methyl heptanoate], the ED50 was 0.31 mg/kg with Staph. aureus Smith [1] (setting [5]); 8.05 mg/kg with Staph. aureus Smith [1] (setting [6]); 8.05 mg/kg in the assay on Staph. aureus Smith [1] (setting [7]); 0.31 mg/kg with Staph. aureus Smith [1] (setting [8]); above 2 mg/kg in the assay on E. coli #311 (setting [18]); above 32 mg/kg in the assay on E. coli #311 (setting [19]). In addition, the MIC in the assay on E. coli [2] (setting [9]) was in the range of 0.5 to 2 mg/L (≈ 0.66 to 2.64 µM); with E. coli [2] (setting [10]), 8 to 32 mg/L (≈ 10.6 to 42.2 µM); in the assay on E. coli [2] (setting [11]), 0.5 to 2 mg/L (≈ 0.66 to 2.64 µM); with Staph. (setting [12]), 0.5 to 4 mg/L (≈ 0.66 to 5.28 µM); in the assay on Staph. (setting [13]) it was 1 to 8 mg/L (≈ 1.32 to 10.6 µM); in the assay on Staph. (setting [14]), 0.5 to 4 mg/L (≈ 0.66 to 5.28 µM). In addition, the MIC with Staph. (setting [15]) is 1 to 8 mg/L (≈ 1.32 to 10.6 µM); in the assay on Staph. (setting [16]) it was 0.12 to 1 mg/L (≈ 0.158 to 1.32 µM); in the assay on Staph. (setting [17]), 0.25 to 4 mg/L (≈ 0.33 to 5.28 µM); in the assay on Staph. aureus Smith [3] (Table 8), 1 mg/L (≈ 1.32 µM).

Consider `CCCCN(CC(=O)Nc1cc(N(C)C)c2c(c1O)C(=O)C1=C(O)[C@]3(O)C(=O)C(C(N)=O)=C(O)[C@@H](N(C)C)[C@@H]3C[C@@H]1C2)C(=O)OCOC(=O)CC(C)(C)C` [Example 36, ({[(2-{[(5aR,6aS,7S,10aS)-9-(aminocarbonyl)-4,7-bis(dimethylamino)-1,8,10a,11-tetrahydroxy-10,12-dioxo-5,5a,6,6a,7,10,10a,12-octahydrotetracen-2-yl]amino}-2-oxoethyl)(butyl)amino]carbonyl}oxy)methyl 3,3-dimethylbutanoate], for which the ED50 came out at 0.84 mg/kg in the assay on Staph. aureus Smith [1] (setting [5]), 5.15 mg/kg in the assay with Staph. aureus Smith [1] (setting [6]), 5.15 mg/kg in the assay with Staph. aureus Smith [1] (setting [7]) and 0.84 mg/kg in the assay with Staph. aureus Smith [1] (setting [8]). Also, the MIC in the assay with E. coli [2] (setting [9]) was in the range of 2 to 8 mg/L (≈ 2.64 to 10.6 µM); in the assay with E. coli [2] (setting [20]) it was 2 to 8 mg/L (≈ 2.64 to 10.6 µM); with E. coli [2] (setting [21]), 8 to 32 mg/L (≈ 10.6 to 42.2 µM); in the assay with E. coli [2] (setting [22]), 8 to 32 mg/L (≈ 10.6 to 42.2 µM); with Staph. (setting [23]), 2 to 4 mg/L (≈ 2.64 to 5.28 µM); with Staph. (setting [24]), 4 to 16 mg/L (≈ 5.28 to 21.1 µM). For the same compound, the MIC in the assay with Staph. (setting [12]) was 2 to 4 mg/L (≈ 2.64 to 5.28 µM); in the assay on Staph. (setting [13]) it was 4 to 16 mg/L (≈ 5.28 to 21.1 µM); against Staph. aureus Smith [3] (Table 8), 8 mg/L (≈ 10.6 µM).

`CCCN(CC(=O)Nc1cc(N(C)C)c2c(c1O)C(=O)C1=C(O)[C@]3(O)C(=O)C(C(N)=O)=C(O)[C@@H](N(C)C)C3CC1C2)C(=O)OCOC(=O)C1CCCCC1` (stereo partly drawn) [Example 33, ({[(2-{[(7S,10aS)-9-(aminocarbonyl)-4,7-bis(dimethylamino)-1,8,10a,11-tetrahydroxy-10,12-dioxo-5,5a,6,6a,7,10,10a,12-octahydrotetracen-2-yl]amino}-2-oxoethyl)(propyl)amino]carbonyl}oxy)methyl cyclohexanecarboxylate]: the ED50 with Staph. aureus Smith [1] (setting [5]) was found to be 0.48 mg/kg; in the assay with Staph. aureus Smith [1] (setting [6]), 4.91 mg/kg; with Staph. aureus Smith [1] (setting [7]), 4.91 mg/kg; in the assay on Staph. aureus Smith [1] (setting [8]) it was 0.45 mg/kg. The MIC in the assay with E. coli [2] (setting [9]) lay in the range of 0.5 to 2 mg/L (≈ 0.662 to 2.65 µM); with E. coli [2] (setting [11]), 0.5 to 2 mg/L (≈ 0.662 to 2.65 µM); with Staph. (setting [12]), 0.12 to 2 mg/L (≈ 0.159 to 2.65 µM); in the assay on Staph. (setting [13]) it was 0.12 to 2 mg/L (≈ 0.159 to 2.65 µM); in the assay on Staph. (setting [14]), 0.12 to 2 mg/L (≈ 0.159 to 2.65 µM); in the assay with Staph. (setting [15]) it was 0.12 to 2 mg/L (≈ 0.159 to 2.65 µM). Also, the MIC in the assay with Staph. aureus Smith [3] (Table 8) is 0.12 mg/L (≈ 0.159 µM).

For `CCCN(CC(=O)Nc1cc(N(C)C)c2c(c1O)C(=O)C1=C(O)[C@]3(O)C(=O)C(C(N)=O)=C(O)[C@@H](N(C)C)[C@@H]3C[C@@H]1C2)C(=O)OCOC(=O)CC(C)(C)C` [Example 35, ({[(2-{[(5aR,6aS,7S,10aS)-9-(aminocarbonyl)-4,7-bis(dimethylamino)-1,8,10a,11-tetrahydroxy-10,12-dioxo-5,5a,6,6a,7,10,10a,12-octahydrotetracen-2-yl]amino}-2-oxoethyl)(propyl)amino]carbonyl}oxy)methyl 3,3-dimethylbutanoate], the ED50 was 0.43 mg/kg in the assay with Staph. aureus Smith [1] (setting [5]), 3.5 mg/kg in the assay on Staph. aureus Smith [1] (setting [6]), 3.5 mg/kg in the assay on Staph. aureus Smith [1] (setting [7]) and 0.43 mg/kg in the assay on Staph. aureus Smith [1] (setting [8]). The MIC is 4 to 8 mg/L (≈ 5.38 to 10.8 µM) with E. coli [2] (setting [9]); 8 to 64 mg/L (≈ 10.8 to 86 µM) in the assay with E. coli [2] (setting [22]); 4 to 8 mg/L (≈ 5.38 to 10.8 µM) in the assay with E. coli [2] (setting [11]); 8 to 64 mg/L (≈ 10.8 to 86 µM) in the assay on E. coli [2] (read-out: Range of MIC, E. coli (water)); 2 to 4 mg/L (≈ 2.69 to 5.38 µM) in the assay on Staph. (setting [12]); 2 to 4 mg/L (≈ 2.69 to 5.38 µM) with Staph. (setting [13]). The MIC with Staph. (setting [14]) was 2 to 4 mg/L (≈ 2.69 to 5.38 µM); with Staph. (setting [15]), 2 to 4 mg/L (≈ 2.69 to 5.38 µM); against Staph. aureus Smith [3] (Table 8), 4 mg/L (≈ 5.38 µM).

`CN(C)c1cc(NC(=O)CN(C(=O)OCOC(=O)CC2CCCC2)C(C)(C)C)c(O)c2c1C[C@H]1C[C@H]3[C@H](N(C)C)C(O)=C(C(N)=O)C(=O)[C@@]3(O)C(O)=C1C2=O` [Example 54, ({[(2-{[(5aR,6aS,7S,10aS)-9-(aminocarbonyl)-4,7-bis(dimethylamino)-1,8,10a,11-tetrahydroxy-10,12-dioxo-5,5a,6,6a,7,10,10a,12-octahydrotetracen-2-yl]amino}-2-oxoethyl)(tert-butyl)amino]carbonyl}oxy)methyl cyclopentylacetate]: the median effective dose (ED50) is 0.83 mg/kg in the assay on Staph. aureus Smith [1] (setting [5]); 8.4 mg/kg in the assay with Staph. aureus Smith [1] (setting [6]); above 16 mg/kg in the assay with Staph. aureus Smith [1] (setting [7]); 1.17 mg/kg with Staph. aureus Smith [1] (setting [8]); 3.72 mg/kg with E. coli #311 (setting [18]); 2.16 mg/kg with E. coli #311 (single intravenous dose, mice, Table 7, read-out: ED50 SIV (E. coli)). The median effective dose (ED50) with E. coli #311 (setting [19]) was above 32 mg/kg; in the assay on E. coli #311 (single oral dose, mice, Table 7, read-out: ED50 SOD (E. coli)) it was 29.2 mg/kg. Also, the MIC with E. coli [2] (setting [9]) was 0.5 to 1 mg/L (≈ 0.649 to 1.3 µM); in the assay with E. coli [2] (setting [10]), 16 to 32 mg/L (≈ 20.8 to 41.6 µM); with E. coli [2] (setting [21]), above 64 mg/L; in the assay on E. coli [2] (setting [22]), above 64 mg/L; with Staph. (setting [12]) it was 0.5 to 2 mg/L (≈ 0.649 to 2.6 µM); with Staph. (setting [13]) it was 1 to 4 mg/L (≈ 1.3 to 5.2 µM). Moreover, the MIC is 0.5 to 2 mg/L (≈ 0.649 to 2.6 µM) in the assay with Staph. (setting [16]), 1 to 4 mg/L (≈ 1.3 to 5.2 µM) in the assay with Staph. (setting [17]), 0.5 mg/L (≈ 0.649 µM) against Staph. aureus Smith [3] (Table 6) and above 64 mg/L in the assay with E. coli [4].

For the compound `CCCCN(CC(=O)Nc1cc(N(C)C)c2c(c1O)C(=O)C1=C(O)[C@]3(O)C(=O)C(C(N)=O)=C(O)[C@@H](N(C)C)[C@@H]3C[C@@H]1C2)C(=O)OCOC(=O)CC1CCCC1` [Example 38, ({[(2-{[(5aR,6aS,7S,10aS)-9-(aminocarbonyl)-4,7-bis(dimethylamino)-1,8,10a,11-tetrahydroxy-10,12-dioxo-5,5a,6,6a,7,10,10a,12-octahydrotetracen-2-yl]amino}-2-oxoethyl)(butyl)amino]carbonyl}oxy)methyl cyclopentylacetate], the 50% effective dose (ED50) in the assay on Staph. aureus Smith [1] (setting [5]) came out at 0.6 mg/kg; in the assay on Staph. aureus Smith [1] (setting [6]), 5.3 mg/kg; with Staph. aureus Smith [1] (setting [7]), 5.3 mg/kg; with Staph. aureus Smith [1] (setting [8]), 0.6 mg/kg. The MIC lay in the range of 0.5 to 4 mg/L (≈ 0.649 to 5.2 µM) in the assay on E. coli [2] (setting [9]); 0.5 to 4 mg/L (≈ 0.649 to 5.2 µM) with E. coli [2] (setting [20]); 0.5 to 2 mg/L (≈ 0.649 to 2.6 µM) with Staph. (setting [23]); 1 to 8 mg/L (≈ 1.3 to 10.4 µM) with Staph. (setting [24]); 0.5 to 2 mg/L (≈ 0.649 to 2.6 µM) in the assay on Staph. (setting [12]); 1 to 8 mg/L (≈ 1.3 to 10.4 µM) in the assay with Staph. (setting [13]). Moreover, the MIC against Staph. aureus Smith [3] (Table 8) was determined as 2 mg/L (≈ 2.6 µM).

The values are drawn from patent publication US20070049564A1 (Wyeth, priority 2005, published 2007).
